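Results reflect a 48-hour exposure of cells in 96-well plates to compound at five concentrations. GI50 is the concentration that inhibits growth by half. Definition used: TGI = concentration required for complete inhibition of growth.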
Experiments:
Assay in all cases: NCI tumour cell line growth inhibition, 48 h
BT-549 breast = tested on: BT-549 breast
HT29 colon = tested on: HT29 colon
M14 melanoma = tested on: M14 melanoma
OVCAR-3 ovarian = tested on: OVCAR-3 ovarian
OVCAR-5 ovarian = tested on: OVCAR-5 ovarian
RPMI-8226 leukemia = tested on: RPMI-8226 leukemia
SF-295 CNS = tested on: SF-295 CNS
SNB-75 CNS = tested on: SNB-75 CNS
UO-31 renal = tested on: UO-31 renal
HCT-15 colon = tested on: HCT-15 colon

SMILES | GI50 (BT-549 breast) | TGI (BT-549 breast) | GI50 (HT29 colon) | TGI (HT29 colon) | GI50 (M14 melanoma) | TGI (M14 melanoma) | GI50 (OVCAR-3 ovarian) | TGI (OVCAR-3 ovarian) | GI50 (OVCAR-5 ovarian) | TGI (OVCAR-5 ovarian) | GI50 (RPMI-8226 leukemia) | TGI (RPMI-8226 leukemia) | GI50 (SF-295 CNS) | TGI (SF-295 CNS) | GI50 (SNB-75 CNS) | TGI (SNB-75 CNS) | GI50 (UO-31 renal) | TGI (UO-31 renal) | TGI (HCT-15 colon) | GI50 (HCT-15 colon)
C1CCC([PH+](C2CCCCC2)C2CCCCC2[PH+](C2CCCCC2)C2CCCCC2)CC1.[Au].[CH-]1CCCCC1CC1CCCC[N-]1 (stereo not drawn) | 330 nM | 1.51 µM | 342 nM | 1.98 µM | 297 nM | 1.27 µM | 318 nM | 1.2 µM | 0.452 µM | 2.01 µM | 186 nM | 0.944 µM | 305 nM | 1.28 µM | 230 nM | 0.971 µM | 1300 nM | 2.61 µM |  | 
Cc1ccc2c(C3Cc4ccccc4N3C(=O)/C=C\C(=O)O)c(C)[nH]c2c1 (stereo not drawn) |  |  |  | > 100 µM |  | > 100 µM |  | 66.8 µM |  | > 100 µM |  | 79.7 µM |  | > 100 µM |  | > 100 µM |  | > 100 µM | 72.5 µM | 
CO[C@H]1CC(O[C@@H]2/C(C)=C/C[C@@H]3C[C@@H](C[C@]4(C=C[C@H](C)[C@@H](C5CCCCC5)O4)O3)OC(=O)[C@@H]3C=C(C)[C@@H](O)[C@H]4OC/C(=C\C=C\[C@@H]2C)[C@]43O)O[C@@H](C)C1O[C@H]1C[C@H](OC)[C@@H](O)[C@H](C)O1 (stereo partly drawn) | 1780 nM | 3.24 µM | 1870 nM | 3.85 µM | 1670 nM | 3.13 µM | 1660 nM | 3.12 µM |  |  | 1390 nM | 4.38 µM | 1330 nM | 2.83 µM | 1450 nM | 3.6 µM | 1400 nM | 2.71 µM |  | 
N#CC(C#N)=C1NC(=O)CC(=O)N1 |  |  |  | > 100 µM |  | > 100 µM |  | > 100 µM |  | > 100 µM |  | > 100 µM |  | > 100 µM |  | > 100 µM |  | > 100 µM | > 100 µM | 
O=C1NC(=O)C2C(=O)NC(=O)C1C2c1c(Cl)cccc1Cl (stereo not drawn) |  |  |  | > 100 µM |  | > 100 µM |  | > 100 µM |  | > 100 µM |  | > 67.2 µM |  | > 100 µM |  | > 100 µM |  | > 100 µM | > 100 µM | 
CC(=O)Nc1ccc(SC#N)c2c(NC(C)=O)cccc12 |  |  |  | > 100 µM |  | > 100 µM |  | > 100 µM |  | > 100 µM |  | 73.9 µM |  | > 100 µM |  | > 100 µM |  | > 100 µM | > 100 µM | 
CCC(=O)C12OC3OC(C)(C)OC3C1OC(C)(C)O2 (stereo not drawn) |  |  |  | > 100 µM |  | > 100 µM |  | > 100 µM |  | > 100 µM |  |  |  | > 100 µM |  | > 100 µM |  | > 100 µM |  | 
N#CC(=C1C=CC(=NO)C=C1)c1ccc(Cl)cc1 |  |  |  | 22.9 µM |  | 41.5 µM |  | 13.2 µM |  | 28.8 µM |  | 15.3 µM |  | 48 µM |  | > 100 µM |  | 31.7 µM | 49.6 µM | 
O=C1CC(c2c[nH]c3ccccc23)C(=O)N1 (stereo not drawn) |  |  |  | > 100 µM |  | > 100 µM |  | > 100 µM |  | > 100 µM |  | > 100 µM |  | > 100 µM |  | > 100 µM |  | > 100 µM | > 100 µM | 
COc1ccc(-c2[nH]c3ccccc3c2-c2ccc(OC)cc2)cc1 |  |  | 2990 nM | 11.9 µM | 3900 nM | 14.8 µM | 2180 nM | 5.27 µM | 15.4 µM | 33.9 µM | 3270 nM | 69.5 µM | 3330 nM | 14 µM | 1470 nM | 6.61 µM | 3290 nM | 15.5 µM | 14.1 µM | 3.56 µM
COc1cc(C(=O)C/C(CCC(=O)Nc2ccccc2[N+](=O)[O-])=N\NC(N)=O)ccc1O |  |  |  | > 100 µM |  | > 100 µM |  | > 100 µM |  | > 100 µM |  | > 100 µM |  | > 100 µM |  | > 100 µM |  | > 100 µM | > 100 µM | 
O=C1OC(=O)C(=C\c2ccc3c(c2)OCO3)/C1=C/c1ccc2c(c1)OCO2 |  | > 100 µM |  | > 100 µM |  | > 100 µM |  | > 100 µM |  | > 100 µM |  | 97.2 µM |  | > 100 µM |  |  |  | > 100 µM | > 100 µM | 
COC(=O)C1CC2CC(=NNC(N)=O)CC2C1 (stereo not drawn) |  |  |  | > 100 µM |  | > 100 µM |  | > 100 µM |  | > 100 µM |  | > 100 µM |  | > 100 µM |  | > 100 µM |  | > 100 µM | > 100 µM | 
O=C(/C=C/c1cc2ccccc2[nH]c1=O)/C=C/c1cc2ccccc2[nH]c1=O | 6860 nM | 12.4 µM |  |  |  |  | 12100 nM | > 63.5 µM | > 49 µM | > 100 µM | 4020 nM | > 40.1 µM | > 25300 nM | > 86.2 µM | > 26300 nM | > 67.5 µM | > 100000 nM | > 100 µM | > 100 µM | 9.96 µM
CCN(CC)CC1c2ccccc2C(CNc2ccccc2)N1C (stereo not drawn) |  |  |  |  |  | > 100 µM |  | > 100 µM |  | > 100 µM |  | > 100 µM |  | > 100 µM |  | > 100 µM |  | > 100 µM | > 100 µM | 
Cc1[nH]c2ccccc2c1C(=O)CC1(O)C(=O)Nc2c(Cl)cc(Cl)cc21 (stereo not drawn) |  |  |  | > 100 µM |  | 53.9 µM |  | 44 µM |  | 52.1 µM |  | 53.8 µM |  | 56.2 µM |  | > 100 µM |  | 60.9 µM | > 100 µM | 
Cc1ccc(-c2nnc(-c3nn(-c4ccccc4)c4nc5ccccc5nc34)o2)cc1 |  |  |  | > 100 µM |  | > 100 µM |  | 28.7 µM |  | > 100 µM |  | > 100 µM |  | 36.8 µM |  | 8.3 µM |  | 39 µM | > 100 µM | 
CC1(O)C=CC(=O)C=C1 |  |  |  | > 100 µM |  | 41.6 µM |  | 51.4 µM |  | > 100 µM |  | > 100 µM |  | > 100 µM |  | > 100 µM |  | > 84.5 µM | 31.7 µM | 
COc1cc2c(c(OC)c1OC)-c1ccc(SC)c(=O)cc1C(NC(=O)c1ccccc1)CC2 (stereo not drawn) |  | > 31.6 µM |  | 1.12 µM |  | 30.3 µM |  | < 0.01 µM |  | 58.7 µM |  | 52.5 µM |  | < 0.0133 µM |  | 4.01 µM |  | > 68.1 µM |  | 
COC(=O)C1(C)CCc2c(OC)ccc(OC)c2C1=O (stereo not drawn) |  |  |  |  |  | > 100 µM |  | > 100 µM |  | > 100 µM |  | > 100 µM |  | > 100 µM |  | > 100 µM |  | > 100 µM | > 100 µM | 

Source: PubChem BioAssay (NCI)
